Experimental data as given in patent publication US8999982B2, “Pharmaceutically active compounds as Axl inhibitors” (Lead Discovery Center GmbH, priority 2010, dated 2015).

Key:
[1] = molecular target: T1, Axl (Homo sapiens (Human), UniProt P30530); assay: Axl binding assay
Protocol: Binding of the tracer to the kinase is detected using an EU-labeled anti-tag antibody. […] Binding of an inhibitor to the kinase competes for binding with the tracer, resulting in a loss of FRET-signal. At first a compound according to formula (I) was diluted in 20 mM Hepes pH 8.0, 1 mM DTT, 10 mM MgCl2 and 0.01% Brij35.

[2] = molecular target: T1, Axl; assay: Cellular Axl phosphorylation assay; type: cell-based; conditions: HEK293 cells transfected with Axl cDNA, 1 hour incubation
Summary of the method: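 Transiently Axl-transfected HEK293 cells, with a vector-only negative control, were treated with compound for 1 hour on the day after medium change. Axl phosphorylation was quantified by mesoscale detection.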

T1 sequence (P30530 26-894): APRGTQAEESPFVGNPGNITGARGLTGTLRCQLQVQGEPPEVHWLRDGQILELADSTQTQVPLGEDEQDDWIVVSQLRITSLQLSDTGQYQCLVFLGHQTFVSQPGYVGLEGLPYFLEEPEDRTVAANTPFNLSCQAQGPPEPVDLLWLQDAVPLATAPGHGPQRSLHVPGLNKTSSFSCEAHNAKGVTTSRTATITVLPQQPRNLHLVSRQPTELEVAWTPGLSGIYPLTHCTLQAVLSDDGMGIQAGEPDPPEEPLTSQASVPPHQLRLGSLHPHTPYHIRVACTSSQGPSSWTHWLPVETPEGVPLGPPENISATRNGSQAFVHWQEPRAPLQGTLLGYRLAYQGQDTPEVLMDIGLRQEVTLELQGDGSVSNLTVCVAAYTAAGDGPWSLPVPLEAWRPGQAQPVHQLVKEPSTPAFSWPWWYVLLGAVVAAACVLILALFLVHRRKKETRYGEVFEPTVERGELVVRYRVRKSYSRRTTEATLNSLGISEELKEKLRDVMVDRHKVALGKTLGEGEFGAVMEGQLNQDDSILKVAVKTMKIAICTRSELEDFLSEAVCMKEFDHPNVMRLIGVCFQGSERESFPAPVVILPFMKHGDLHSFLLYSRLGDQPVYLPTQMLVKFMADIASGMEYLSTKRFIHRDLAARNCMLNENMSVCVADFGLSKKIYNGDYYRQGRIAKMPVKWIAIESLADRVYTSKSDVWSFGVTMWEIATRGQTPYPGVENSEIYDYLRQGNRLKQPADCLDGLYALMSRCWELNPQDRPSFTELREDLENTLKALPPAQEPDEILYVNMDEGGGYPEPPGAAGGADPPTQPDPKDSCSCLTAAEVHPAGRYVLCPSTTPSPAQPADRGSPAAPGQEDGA

| SMILES | IC50 [1] [nM] | IC50 [2] [nM] |
| --- | --- | --- |
| COc1cc2c(Oc3ccc(NC(=O)c4nn(-c5ccc(F)cc5)cc4OCC4CCN(C)C4)cc3F)ccnc2cc1OCCCN1CCNCC1 (stereo not shown) [Example 71, N-[3-fluoro-4-[[6-methoxy-7-(3-piperazin-1-ylpropoxy)-4-quinolyl]oxy]phenyl]-1-(4-fluorophenyl)-4-[(1-methylpyrrolidin-3-yl)methoxy]pyrazole-3-carboxamide] | < 500 | 500 to 5000 |
| COc1cc2c(Oc3ccc(NC(=O)c4csc(-c5ccccc5)n4)cc3F)ccnc2cc1OCCCN1CCNCC1 [Example 72, N-[3-fluoro-4-[[6-methoxy-7-(3-piperazin-1-ylpropoxy)-4-quinolyl]oxy]phenyl]-2-phenyl-thiazole-4-carboxamide] | < 500 | < 500 |
| COc1cc2c(Oc3ccc(NC(=O)c4nn(-c5ccc(F)cc5)cc4OC)cc3F)ccnc2cc1OCC1CCNCC1 [Example 73, N-[3-fluoro-4-[[6-methoxy-7-(4-piperidylmethoxy)-4-quinolyl]oxy]phenyl]-1-(4-fluorophenyl)-4-methoxy-pyrazole-3-carboxamide] | < 500 | < 500 |
| CCOc1cn(-c2ccc(F)cc2C)nc1C(=O)Nc1ccc(Oc2ccnc3cc(OCC4CCNCC4)c(OC)cc23)c(F)c1 [Example 74, 4-ethoxy-N-[3-fluoro-4-[[6-methoxy-7-(4-piperidylmethoxy)-4-quinolyl]oxy]phenyl]-1-(4-fluoro-2-methyl-phenyl)pyrazole-3-carboxamide] | < 500 | < 500 |
| COc1cc2c(Oc3ccc(NC(=O)c4nn(-c5ccc(F)cc5)cc4OCC4CC4)cc3F)ccnc2cc1OCC1CCNCC1 [Example 75, 4-(cyclopropylmethoxy)-N-[3-fluoro-4-[[6-methoxy-7-(4-piperidylmethoxy)-4-quinolyl]oxy]phenyl]-1-(4-fluorophenyl)pyrazole-3-carboxamide] | < 500 | < 500 |
| COc1cc2c(Oc3ccc(NC(=O)c4nn(-c5ccc(F)cc5)cc4Br)cc3F)ccnc2cc1OCC1CCNCC1 [Example 76, 4-bromo-N-[3-fluoro-4-[[6-methoxy-7-(4-piperidylmethoxy)-4-quinolyl]oxy]phenyl]-1-(4-fluorophenyl)pyrazole-3-carboxamide] | < 500 | < 500 |
| COc1cc2c(Oc3ccc(NC(=O)c4nn(-c5ccc(F)cc5)cc4OCc4ccc(F)cc4)cc3F)ccnc2cc1OCC1CCNCC1 [Example 77, N-[3-fluoro-4-[[6-methoxy-7-(4-piperidylmethoxy)-4-quinolyl]oxy]phenyl]-1-(4-fluorophenyl)-4-[(4-fluorophenyl)methoxy]pyrazole-3-carboxamide] | < 500 | < 500 |
| COc1cc2c(Oc3ccc(NC(=O)c4cc(C)n(C(C)(C)C)n4)cc3F)ccnc2cc1OCC1CCNCC1 [Example 78, 1-tert-butyl-N-[3-fluoro-4-[[6-methoxy-7-(4-piperidylmethoxy)-4-quinolyl]oxy]phenyl]-5-methyl-pyrazole-3-carboxamide] | < 500 | < 500 |
| COc1cc2c(Oc3ccc(NC(=O)c4nc(-c5ccccc5)oc4C)cc3F)ccnc2cc1OCC1CCNCC1 [Example 80, N-[3-fluoro-4-[[6-methoxy-7-(4-piperidylmethoxy)-4-quinolyl]oxy]phenyl]-5-methyl-2-phenyl-oxazole-4-carboxamide] | < 500 | < 500 |
| COc1cc2c(Oc3ccc(NC(=O)c4csc(-c5ccccc5)n4)cc3F)ccnc2cc1OCC1CCNCC1 [Example 81, N-[3-fluoro-4-[[6-methoxy-7-(4-piperidylmethoxy)-4-quinolyl]oxy]phenyl]-2-phenyl-thiazole-4-carboxamide] | < 500 | 500 to 5000 |
| CCOc1cn(-c2ccc(F)cc2C)nc1C(=O)Nc1ccc(Oc2ccnc3cc(OCC4CCN(CC)CC4)c(OC)cc23)c(F)c1 [Example 82, 4-ethoxy-N-[4-[[7-[(1-ethyl-4-piperidyl)methoxy]-6-methoxy-4-quinolyl]oxy]-3-fluoro-phenyl]-1-(4-fluoro-2-methyl-phenyl)pyrazole-3-carboxamide] | < 500 | < 500 |
